ChEMBL document CHEMBL1201862, “PubChem BioAssay data set” (2004)
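Dose response: 5 concentrations. Exposure: 48 h. Format: 96-well plates. Endpoint: linear interpolation; highest concentration if not reached. At the GI50, growth is halved.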 Active and inactive are the calls of the source. Rule as the data show it: active = GI50 up to about 1.1 µM and inactive = higher.

Columns and labels:
Test in all cases: NCI-60 cell line screen, 48 h
OVCAR-8 = test system: OVCAR-8
SF-295 = test system: SF-295
EKVX = test system: EKVX
NCI-H460 = test system: NCI-H460
IGROV-1 = test system: IGROV-1
CCRF-CEM = test system: CCRF-CEM
SK-MEL-5 = test system: SK-MEL-5
NCI-H23 = test system: NCI-H23
OVCAR-3 = test system: OVCAR-3
U-251 = test system: U-251
HL-60 = test system: HL-60
Malme-3M = test system: Malme-3M
UACC-257 = test system: UACC-257
NCI-H522 = test system: NCI-H522
HT-29 = test system: HT-29
786-0 = test system: 786-0
K562 = test system: K562
RPMI-8226 = test system: RPMI-8226
UACC-62 = test system: UACC-62

Measured: GI50

CC(C)=CCN1c2ccc(Cl)cc2NC(=O)CC1C (configuration not stated)
inactive: OVCAR-8 19.1 µM | SF-295 35.1 µM | EKVX 25.8 µM | NCI-H460 17.5 µM | IGROV-1 21.8 µM | CCRF-CEM 38.6 µM | SK-MEL-5 18 µM | NCI-H23 22.6 µM | OVCAR-3 18.3 µM | U-251 27.5 µM | HL-60 13 µM | Malme-3M 20.3 µM | UACC-257 21.2 µM | NCI-H522 12 µM | HT-29 17.5 µM | 786-0 18.2 µM | K562 65.6 µM | RPMI-8226 22.1 µM

CSC(=N)N1N=C2/C(=C/c3ccccc3)CCC[C@H]2[C@H]1c1ccccc1
inactive: OVCAR-8 10.8 µM | SF-295 4.69 µM | EKVX 4.56 µM | UACC-62 10.9 µM | NCI-H460 5.68 µM | IGROV-1 2.12 µM | CCRF-CEM 2.6 µM | NCI-H23 4.88 µM | OVCAR-3 10.6 µM | U-251 12 µM | HL-60 1.72 µM | Malme-3M 1.93 µM | UACC-257 2.37 µM | NCI-H522 4.23 µM | HT-29 2.07 µM | 786-0 5.47 µM | K562 1.91 µM | RPMI-8226 2.18 µM

CN(C)/N=C(/c1nc2ccc(Cl)cc2nc1O)C(O)c1ccc(C(O)/C(=N\N(C)C)c2nc3ccc(Cl)cc3nc2O)cc1 (configuration not stated)
inactive: OVCAR-8 > 100 µM | SF-295 > 100 µM | EKVX > 100 µM | UACC-62 > 100 µM | NCI-H460 > 100 µM | IGROV-1 > 100 µM | CCRF-CEM 6.43 µM | SK-MEL-5 > 100 µM | NCI-H23 > 100 µM | OVCAR-3 > 100 µM | HL-60 27.9 µM | Malme-3M > 100 µM | UACC-257 > 100 µM | NCI-H522 > 100 µM | HT-29 > 100 µM | 786-0 > 100 µM | K562 60.3 µM | RPMI-8226 14.1 µM

COc1cc(C)cc(OC)c1/C=C/C(=O)O
inactive: OVCAR-8 > 100 µM | SF-295 > 100 µM | EKVX > 100 µM | UACC-62 > 100 µM | NCI-H460 > 100 µM | IGROV-1 > 100 µM | SK-MEL-5 > 100 µM | NCI-H23 > 100 µM | OVCAR-3 21.5 µM | U-251 > 100 µM | HL-60 > 100 µM | Malme-3M > 100 µM | UACC-257 > 100 µM | NCI-H522 > 100 µM | HT-29 > 100 µM | 786-0 > 100 µM | K562 > 100 µM | RPMI-8226 > 100 µM
